Test results published in ChEMBL document CHEMBL3616465, “Neutrophil elastase inhibitors for the treatment of (cardio)pulmonary diseases: Into clinical testing with pre-adaptive pharmacophores” (Bioorg Med Chem Lett, 2015).

Experiments:
[1] = target: T1, Neutrophil elastase (Homo sapiens) (UniProt P08246); conditions: Blood
T1 sequence (whole entry): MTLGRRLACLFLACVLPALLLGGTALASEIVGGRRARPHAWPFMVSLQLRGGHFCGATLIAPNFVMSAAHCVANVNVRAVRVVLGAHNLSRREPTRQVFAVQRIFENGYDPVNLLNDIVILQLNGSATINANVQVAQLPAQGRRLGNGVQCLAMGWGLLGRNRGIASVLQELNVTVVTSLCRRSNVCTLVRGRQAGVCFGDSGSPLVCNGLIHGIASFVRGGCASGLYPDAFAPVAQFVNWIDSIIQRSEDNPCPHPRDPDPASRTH
Description: (§1) Inhibition of neutrophil elastase in human whole blood using MeO-Succ-Ala-Ala-Pro-Val-pNA as substrate after 30 mins by colorimetric analysis

[2] = target: T2, Neutrophil elastase (Homo sapiens, UniProt P08246); assay: Inhibition of human neutrophil elastase using MeO-Succ-Ala-Ala-Pro-Val-AMC as substrate after 30 mins by fluorescence assay
T2 sequence (P08246 whole entry): T1 sequence (whole entry)

[3] = target: T2, Neutrophil elastase
Description: as §1

[4] = target: T2, Neutrophil elastase; assay: Inhibition of neutrophil elastase in human plasma using MeOSuc-Ala-Ala-Pro-Val-AMC as substrate by fluorescence assay
[5] = Half life in human hepatocytes at 1 uM by LC/MS-MS analysis
[6] = target: T2, Neutrophil elastase; assay: Inhibition of human neutrophil elastase
[7] = target: T2, Neutrophil elastase; assay: Inhibition of human neutrophil elastase using MeO-Suc-Ala-Ala-Pro-Val 7-amido-4-methylcoumarin as substrate preincubated for 15 mins followed by substrate addition measured after 90 mins
[8] = species: Homo sapiens; assay: Selectivity ratio of IC50 for human CatG to IC50 for human neutrophil elastase
[9] = species: Homo sapiens; assay: Selectivity ratio of IC50 for human chymotrypsin to IC50 for human neutrophil elastase
[10] = tested on: Homo sapiens; assay: Inhibition of sputum neutrophil count in cystic fibrosis patient at 60 mg/kg, po bid measured at 24 hrs relative to control; format: functional
[11] = species: Homo sapiens; assay: Selectivity ratio of IC50 for human trypsin to IC50 for human neutrophil elastase
[12] = Selectivity ratio of IC50 for mouse neutrophil elastase to IC50 for human neutrophil elastase
[13] = Selectivity ratio of IC50 for porcine pancreatic elastase to IC50 for human neutrophil elastase
[14] = Selectivity ratio of IC50 for rat neutrophil elastase to IC50 for human neutrophil elastase
[15] = species: Homo sapiens; assay: Selectivity ratio of IC50 for human PR3 to IC50 for human neutrophil elastase
[16] = target: Pancreatic elastase (Sus scrofa, UniProt P08419+P00772); assay: Inhibition of porcine pancreatic elastase using as succinyl-Ala-Ala-Ala-p-nitroanilide as substrate measured every 1 min by spectrophotometric analysis; format: protein assay
[17] = Half life in po dosed human administered as qd; format: ADME, organism-based; conditions: in vivo

In the case of `CC(C)C[C@H]1C(=O)N(COC(=O)Cc2ccccc2Nc2c(Cl)cccc2Cl)S(=O)(=O)N1C`, the K [1] is reported as 9.8 ×10⁵ /M/s.

In the case of `COC(=O)C1=C(C)N(c2cccc(C(F)(F)F)c2)c2n[nH]c(=O)n2[C@@H]1c1ccc(C#N)cc1CCCN(C)C`, the IC50 [2] is reported as under 20 nM.

In the case of `CCc1cc(OC)cc2nc(-c3cccnc3N3CC[C@H](N(C)C)C3)oc(=O)c12`, the IC50 [3] is reported as 7 nM.

Molecule `CS(=O)(=O)c1cc(C#N)ccc1[C@@H]1C2=C(CCC2=O)N(c2cccc(C(F)(F)F)c2)C(=O)N1CC#N` has an IC50 [2] of under 1 nM, an IC50 [4] of under 1 nM and a half-life at 1 µM [5] of over 2.17 h.

In the case of `CNC(=O)N1C(=O)N(c2cccc(C(F)(F)F)c2)C2=C(C(=O)CC2)[C@H]1c1ccc(C#N)cc1S(C)(=O)=O`, the IC50 [2] is reported as under 1 nM, the IC50 [4] is reported as under 1 nM and the half-life at 1 µM [5] is reported as over 2.17 h.

`N#Cc1ccc([C@H]2NC(=O)N(c3cccc(C(F)(F)F)c3)C3=C2C(=O)CC3)cc1` showed a half-life at 1 µM [5] of over 2.17 h.

Molecule `Cc1c(-c2ccnn2-c2ccc(C#N)cc2)cn2nc(NC(=O)CN(C)C)nc2c1-c1cccc(C(F)(F)F)c1` has an IC50 [6] of under 20 nM.

Molecule `CS(=O)(=O)c1cc(C#N)ccc1[C@@H]1C2=C(CCC2=O)N(c2cccc(C(F)F)c2)C(=O)N1C(=O)NC1CC1` has a half-life at 1 µM [5] of over 2.17 h.

With `Cc1c(-c2ccnn2C)cc(C(=O)NCc2ccc(S(C)(=O)=O)cn2)c(=O)n1-c1cccc(C(F)(F)F)c1` the Ki [7] was 12 nM, the Ratio IC50 [8] was over 680 and the Ratio IC50 [9] was over 2000. It also gave an inhibition in vivo at 60 mg/kg [10] of 50%, a Ratio IC50 [11] of over 2000 and a Ratio IC50 [12] of 24. The Ratio IC50 [13] was over 2000, the Ratio IC50 [14] was 18 and the Ratio IC50 [15] was over 1900.

For `CC(C)(C)C(=O)Oc1ccc(S(=O)(=O)Nc2ccccc2C(=O)NCC(=O)[O-])cc1.[Na+]`, the IC50 [16] was 5600 nM.

Molecule `CC1=C(C#N)[C@@H](c2ccc(C#N)cc2S(C)(=O)=O)N(C)C(=O)N1c1cccc(C(F)(F)F)c1` has a half-life [17] of 120 h.
